From paper doi:10.1101/2025.10.08.681114v1 (biorxiv, 2025)

Molecular target: CHI3L1 (hCHI3L1, CHI3L1-His, YKL-40) (Homo sapiens, UniProt P36222)
Experiment: microscale thermophoresis dose-response
Type: binding

CHI3L1 (hCHI3L1, CHI3L1-His, YKL-40), sequence (P36222 22-383): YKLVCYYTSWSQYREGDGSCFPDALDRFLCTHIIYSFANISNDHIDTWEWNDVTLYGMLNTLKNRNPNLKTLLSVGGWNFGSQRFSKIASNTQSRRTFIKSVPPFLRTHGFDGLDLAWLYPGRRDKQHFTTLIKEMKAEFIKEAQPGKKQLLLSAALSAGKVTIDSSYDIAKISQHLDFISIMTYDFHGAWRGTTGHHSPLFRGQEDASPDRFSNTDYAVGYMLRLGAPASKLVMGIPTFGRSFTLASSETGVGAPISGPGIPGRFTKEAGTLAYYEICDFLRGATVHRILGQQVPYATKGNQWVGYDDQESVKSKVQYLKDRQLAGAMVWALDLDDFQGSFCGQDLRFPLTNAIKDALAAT

Kd: 182 ± 18 µM
SMILES: COc1cc2cc(C3CCN(C(=O)c4csc(C)c4)CC3)ncc2cc1C [A9, compound A9]
